Our source for the TGI and GI50 values is PubChem BioAssay (NCI).

What all share (assay): DTP human tumour cell line panel, 48 h
Experiment [1] deals with ACHN renal.
The test system of experiment [2] is HOP-92 NSCLC.
Experiment [3] relates to COLO 205 colon.
Experiment [4] has as its system HCT-15 colon.
The subject of experiment [5] is SNB-78 CNS.
In experiment [6] the test system is NCI-H23 lung.
The subject of experiment [7] is SNB-19 CNS.
Experiment [8] deals with M14 melanoma.
In experiment [9] the test system is DMS 114 small cell lung.
The subject of experiment [10] is DMS 273 small cell lung.

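48-hour exposure; five concentrations; linearly interpolated endpoints. At the GI50, growth is halved. TGI marks complete inhibition of growth.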 A value given as a limit tells only on which side of the number the result lay.

By TGI is commonly meant the concentration giving total growth inhibition. With `CC1(C)CC(=O)C(/C(=N/NC(=S)NN)C(=O)Nc2nc3ccc([N+](=O)[O-])cc3s2)C(=O)C1`, the total growth inhibition concentration (TGI) in experiment [1], in experiment [2], in experiment [3], in experiment [4], in [5] and in experiment [6] was > 100 µM throughout. Further, the concentration for total growth inhibition (TGI) in [7], in experiment [8] and in [9] was > 100 µM in each case.

`COC(=O)[C@@]1(C(C)CC(=O)O)CCCCC1=O` (some centres undefined): the total growth inhibition concentration (TGI) was > 100 µM in experiment [1]; > 100 µM in experiment [2]; > 100 µM in experiment [3]; 39.7 µM in experiment [10]; > 100 µM in experiment [4]; > 100 µM in experiment [5]. Further, the total growth inhibition concentration (TGI) in experiment [6], in experiment [7], in [8] and in experiment [9] was > 100 µM each time.

For `O=C(c1nc2ccccc2[nH]c1=O)C(O)c1ccccc1` (centres undefined), the total growth inhibition concentration (TGI) in [1], in [2], in [3], in [10], in experiment [4] and in experiment [5] was > 100 µM in each case. The TGI in experiment [6], in [7], in [8] and in experiment [9] was > 100 µM in each case.

As to `NC(=O)c1csc(C2OC(COP(=O)(O)CP(=O)(O)OCC3OC(n4cnc5c(N)ncnc54)C(O)C3O)C(O)C2O)n1` (centres undefined), the TGI in [1], in experiment [2], in experiment [3], in experiment [10], in experiment [4] and in [5] was > 100 µM throughout. Moreover, the total growth inhibition concentration (TGI) in experiment [6], in [7], in [8] and in [9] was > 100 µM in each case.

For `CCCCCCCCCCCCC(Br)C(=O)NCC(N)=O` (centres undefined), the concentration for total growth inhibition (TGI) was 29.2 µM in experiment [1]; 18.9 µM in experiment [2]; 39.2 µM in experiment [3]; 25 µM in [10]; 28.7 µM in experiment [4]; 32.2 µM in experiment [5]. The TGI in experiment [6] was found to be 14.7 µM; in experiment [7], 24.3 µM; in experiment [8], 24.6 µM; in experiment [9], 15.2 µM.

Take `COc1ccc(-c2cc(C(=O)Nc3ccc(C)c(C)c3)nc(NC#N)n2)cc1`: the TGI in experiment [1], in [3], in experiment [10], in experiment [4], in experiment [5] and in experiment [6] was > 100 µM throughout. For the same compound, the total growth inhibition concentration (TGI) in experiment [7], in [8] and in [9] was > 100 µM each time.

For `CCCCC1(C)C=C/C(=C2/C(=O)O/C(=C\C(=O)O)C2=O)O1` (centres undefined), the TGI in [1], in experiment [3], in [10], in experiment [4], in experiment [5] and in experiment [6] was > 100 µM in each case. In addition, the TGI in experiment [7] and in [8] was > 100 µM throughout.

As for `Cc1ccc(C)c(N2C(=O)C(=O)C(c3nc4ccccc4s3)/C(=N/NC(=O)NN)C2=O)c1` (centres undefined), the TGI in experiment [1], in experiment [2], in experiment [3], in [10], in experiment [4] and in experiment [5] was > 100 µM in each case. The TGI in experiment [6], in [7], in experiment [8] and in experiment [9] was > 100 µM throughout.

Consider `CC1(c2ccccc2Cl)C(C#N)C(=O)NC(=O)C1C#N` (centres undefined), for which the TGI in experiment [1] was > 100 µM; in experiment [2], 59.8 µM; in experiment [3], > 100 µM; in [10], > 100 µM; in experiment [4], > 100 µM; in [5], > 100 µM. Further, the TGI in experiment [6] is > 100 µM; in experiment [7], 92.8 µM; in experiment [8], > 100 µM; in experiment [9], > 100 µM.

A word on the GI50: it is the concentration giving 50% growth inhibition. For `C=C1CCC2[C@@H](CCC3[C@]2(C)CCC[C@]3(C)C(=O)OC)C1CC=O` (some centres undefined), the TGI in experiment [1] is 30 µM; in experiment [2], 27.8 µM; in experiment [3], 35.5 µM; in experiment [10] it was 40.7 µM; in experiment [4], 43.6 µM; in experiment [5] it was 34.1 µM. The total growth inhibition concentration (TGI) in [6] came to 35.4 µM; in [7] it was 33.1 µM; in experiment [8], 30.6 µM; in experiment [9] it was 34.7 µM. Also, in [7], the GI50 was 18.2 µM.

Turning to `COc1ccc(CCC2c3cc(OC)c(OC)cc3CCN2C)cc1OC` (centres undefined), the TGI in [1], in [2], in experiment [3], in [4], in [5] and in experiment [6] was > 100 µM throughout. The TGI in [7], in [8] and in experiment [9] was > 100 µM each time.

As for `COCOCC/C=C/C=O`, the TGI in experiment [1], in [2], in experiment [3], in [4], in experiment [5] and in experiment [6] was > 100 µM each time. Moreover, the total growth inhibition concentration (TGI) in experiment [7], in experiment [8] and in experiment [9] was > 100 µM throughout.

In the case of `O=C1Nc2ccccc2N=CC1NC(=O)C(c1ccccc1)c1ccccc1` (centres undefined), the TGI in [1], in experiment [2], in experiment [3], in experiment [10], in experiment [4] and in experiment [5] was > 100 µM each time. The TGI in [6], in experiment [7], in experiment [8] and in experiment [9] was > 100 µM in each case.

On to `N#CC(C#N)c1ccc(C(=O)N2CCC[C@H]2CO)cc1`, for which the TGI in experiment [1], in [2], in experiment [3], in experiment [10], in experiment [4] and in [6] was > 100 µM in each case. Also, the total growth inhibition concentration (TGI) in [7], in [8] and in [9] was > 100 µM throughout.
